Results taken from patent publication US10414798B2, “Cancer stem cell targeting peptide and use thereof” (AGRICULTURAL TECHNOLOGY RESEARCH INSTITUTE, priority 2015, dated 2019).
“Also recorded” adds a separate entry of the source.

Key:
[1] = Glycan microarray analysis; format: binding; settings: biotin-CSC HP, Cy3-streptavidin
Procedure: (§1) N-terminus biotin conjugated CSC HPs with the sequences listed in Table A below were synthesized by GeneDirex with purities higher than 95%. Biotin-CSC HPs were dissolved in DMSO to prepare 10 mg/mL stocks.
Glycan Array 100 microchips (Cat. # GA-Glycan-100) were purchased from RayBiotech and were processed following the manufacturer's instruction with some modifications. Briefly, after blocking with 400 μL Sample Diluent (Item E) at room temperature for 30 minutes, the biotin conjugated CSC HPs were diluted to 1 μg/400 μL with Sample Diluent, and hybridization reactions were carried out at room temperature for 2 hours. After washing, 400 μL of 1×Cy3-conjugated streptavidin was added to each well. The incubation chamber was covered with the plastic adhesive strips and the slide was covered with aluminum foil to avoid exposure to light during incubating in a dark room. The slide was incubated with Cy3-conjugated streptavidin at room temperature for 1 hour with gentle rocking or shaking. After thorough washing, the slide was drained completely, and the fluorescent signals on it were read by laser scanner Axon GenePix. The relative intensity on glycan X was defined as (average of X−negative control)/(positive control−negative control)×100%.
The CSC HPs developed could distinguish CSCs from CCs, and this phenomenon was found cross-species between human and mouse. It was very interesting to figure out the targets of these CSC HPs. There were no detectable fluorescent signals of FITC-CSC HPs remaining on the nitrocellulose membrane that had been blotted with CSC membrane proteins separated by SDS PAGE (data not shown). Glycan microarray (Glycan Array 100 microchips), on which 100 kinds of oligosaccharides were spotted 4 times, was utilized to analyze the possibilities of the interactions between oligosaccharides and CSC HPs. Biotin-CSC HPs as listed in Table 2 were hybridized with glycans on chips. The biotin-CSC HPs trapped on the chips were explored with Cy3-conjugated streptavidin, and the fluorescent signals on it were read by a laser scanner. Two major patterns were illustrated in FIGS. 3A-3F. The first one included glycan 16 (Gal-β-1,4-Glc-β-), 18 (Gal-α-1,4-Gal-β-1,4-Glc-β-), and 26 (GalNAc-β-1,3-Gal-α-1,4-Gal-β-1,4-Glc-β-) Globo series (FIG. 3A). Typical cases were CSC HP-1 and CHC HP-hP1 (FIG. 3C). […] The typical cases were CSC HP5, CSC HP6, CSC HP7, and CSC HP9 (FIG. 3C). Two malignancy and metastasis glycan markers, glycan 63 (Fuc-α-1,2-Gal-β-1,4-(Fuc-α-1,3)-GlcNAc-β-, also called Lewis Y epitope) and glycan 69 (Neu5Ac-α-2,6-Gal-β-1,3-(Neu5Ac-α-2,6)-GalNAc-β-), were also detected. […] Both of the two Neu5Ac-α-2,6-residues were necessary for CSC HPs binding (FIG. 3E).

Hepa1-6 CSCs [2] = assay: Staining of CSCs with rhodamine B or fluorescein labeled CSC HPs; format: binding, mouse; settings: N-terminal rhodamine B or fluorescein conjugate, fluorescence
Procedure: [The procedure below names another cell line; the source lists this cell line under the same test.] (§2) 20 μg/mL of Rhodamine B labeled CSC HP1 (Rd-CSC HP-1) and CSC HP2 (Rd-CSC HP-2) as well as FITC labeled CSC HP11 (FITC-CSC HP-11) were directly used to stain EMT6 CSCs and CCs. Cells were counter-stained with DAPI.
(§3) According to the results above, CSC HP-1, CSC HP-2, CSC HP-3, CSC HP-8, CSC HP-9, CSC HP-10, and CSC HP-11 were selected and chemically synthesized with N-terminal conjugation with rhodamine B or fluorescein. […] It was of interest to determine whether these CSC HPs derived from mouse cancers could recognize human CSCs.

EMT6 CSCs = assay: as above; format: binding, mouse; settings: N-terminal rhodamine B or fluorescein conjugate, fluorescence
Procedure: as §2, §3

CT26 CSCs [3] = assay: as above; format: binding, mouse; settings: N-terminal rhodamine B or fluorescein conjugate, fluorescence
Procedure: [The procedure below names another cell line; the source lists this cell line under the same test.] as §2, §3

PANC-1 CSCs = assay: Staining of tumorospheres with rhodamine B or fluorescein labeled CSC HPs; format: binding, human; settings: N-terminal rhodamine B or fluorescein conjugate, fluorescence
Procedure: [The procedure below names another cell line; the source lists this cell line under the same test.] as §2, §3

Hepa1-6 CSCs [4] = assay: M13 phage display selection, secondary Hepa1-6 CSC HP-library; format: binding, mouse; settings: from Table 1
Procedure: (§4) The M13 PhD-7 library (NEB, E8100) which contains 10^9 independent clones was purchased from New England Biolabs Inc. 10^13 plaque firming units (pfus) of M13 PhD-7 phages in 10 mL DMEM were pre-adsorbed by cancer cells in a T75 flask twice, each for 1 hour. Subsequently, the supernatant was transferred to a T25 flask containing 5×10^6 CSCs and incubated for 1 hour. The unbound and weakly associated phages were removed by centrifugation and suspension three times in DMEM/0/2% BSA. The cell pellet was suspended in 1 mL PBS containing 10^9 E. coli ER2738 and incubated in a shaker for 1 hour. Then 10 mL LB/5 mM MgCl2 was added. After being cultured over-night at 37° C., the cells were removed by centrifugation and phages in the supernatant were titrated. The aforementioned selection procedures were carried out for three rounds for EMT6 and PANC-1 to obtain the primary EMT6 CSC homing peptide (HP)- and PANC-1 CSC HP-library, respectively. Subsequently, M13 plaques were picked up to prepare the DNA for sequencing. […]
(§5) The primary CSC HP-library was selected directly once by either CT26 or Hepa1-6 CSCs to test the bias of CSC HP affinities to different kinds of cancers. […] Two new peptide sequences, KIYTTLD (CSC HP-9) (SEQ ID NO: 11) and NLQPPAY (CSC HP-12) (SEQ ID NO: 12), were read in the ESC unbound fraction (CSC HP-library) (Table 1).

cancer cells (CCs) = assay: Parallel CC experiments with labeled CSC HPs; format: binding, mouse; settings: N-terminal rhodamine B or fluorescein conjugate, fluorescence
Procedure: as §2, §3

[5] = Glycan microarray analysis, major signal pattern; format: binding; settings: biotin-CSC HP, Cy3-streptavidin
Procedure: as §1
Glycan Array 100 microchips (Cat. # GA-Glycan-100) were purchased from RayBiotech and were processed following the manufacturer's instruction with some modifications. Briefly, after blocking with 400 μL Sample Diluent (Item E) at room temperature for 30 minutes, the biotin conjugated CSC HPs were diluted to 1 μg/400 μL with Sample Diluent, and hybridization reactions were carried out at room temperature for 2 hours. After washing, 400 μL of 1×Cy3-conjugated streptavidin was added to each well. […] After thorough washing, the slide was drained completely, and the fluorescent signals on it were read by laser scanner Axon GenePix. […]
The CSC HPs developed could distinguish CSCs from CCs, and this phenomenon was found cross-species between human and mouse. […] The biotin-CSC HPs trapped on the chips were explored with Cy3-conjugated streptavidin, and the fluorescent signals on it were read by a laser scanner. […] Two malignancy and metastasis glycan markers, glycan 63 (Fuc-α-1,2-Gal-β-1,4-(Fuc-α-1,3)-GlcNAc-β-, also called Lewis Y epitope) and glycan 69 (Neu5Ac-α-2,6-Gal-β-1,3-(Neu5Ac-α-2,6)-GalNAc-β-), were also detected. […]

[6] = tested on: mouse embryonic stem cell (mESC); assay: M13 phage display selection, secondary CSC/ESC HP-library (ESC bound fraction); format: binding
Procedure: as §4, §5

CT26 CSCs [7] = assay: M13 phage display selection, secondary CT26 CSC HP-library; format: binding, mouse; settings: from Table 1
Procedure: as §4, §5

Substance	binding to glycan 26 [1]	association with Hepa1-6 CSCs (Hepa1-6 CSCs [2])	association with EMT6 CSCs (EMT6 CSCs)	association with CT26 CSCs (CT26 CSCs [3])	association with PANC-1 tumorospheres (PANC-1 CSCs)	detection in parallel CC experiments (cancer cells (CCs))	binding to glycan 19 [1]	signal on glycan 69 [1]	other results
FSGGGNH (Cancer Stem Cell Targeting Peptide) [CSC HP-3, synthetic peptide that targets cancer stem cells]	weakly bound	specifically associated	specifically associated	specifically associated	definitely associated	not detectable			bias of CSC HP affinity to Hepa1-6 CSCs (Hepa1-6 CSCs [4]): more specific
GPKVTIW (Cancer Stem Cell Targeting Peptide) [CSC HP-hP1, synthetic peptide that targets cancer stem cells]	bound strongly and specifically								binding / signal on glycan 63 [1]: higher signals; also recorded: bound more strongly; major pattern of glycan microarray signals [5]: Globo series
YHMPALM (Cancer Stem Cell Targeting Peptide) [CSC HP-6, synthetic peptide that targets cancer stem cells]							bound strongly		
SQPTWMF (Cancer Stem Cell Targeting Peptide) [CSC HP-1, synthetic peptide that targets cancer stem cells]	bound strongly and specifically	specifically associated	specifically associated	specifically associated	definitely associated	not detectable			binding / signal on glycan 63 [1]: higher signals; also recorded: bound more strongly; major pattern of glycan microarray signals [5]: Globo series; enrichment in the ESC bound fraction [6]: further enriched
GMMSSPP (Cancer Stem Cell Targeting Peptide) [CSC HP-2, synthetic peptide that targets cancer stem cells]		specifically associated	specifically associated	specifically associated	definitely associated	not detectable			
KIYTTLD (Cancer Stem Cell Targeting Peptide) [CSC HP-9, synthetic peptide that targets cancer stem cells]		specifically associated	specifically associated	specifically associated	definitely associated	not detectable	bound strongly	higher signals	
GLAPFNA (Cancer Stem Cell Targeting Peptide) [CSC HP-11, synthetic peptide that targets cancer stem cells]		specifically associated	specifically associated	specifically associated	definitely associated	not detectable		higher signals	
GSPVMSW (Cancer Stem Cell Targeting Peptide) [CSC HP-hP2, synthetic peptide that targets cancer stem cells]								higher signals	
GPSASRN (Cancer Stem Cell Targeting Peptide) [CSC HP-10, synthetic peptide that targets cancer stem cells]		specifically associated	specifically associated	specifically associated	definitely associated	not detectable		higher signals	
ATYGNLW (Cancer Stem Cell Targeting Peptide) [CSC HP-5, synthetic peptide that targets cancer stem cells]							bound strongly		
HGGVRLY (Cancer Stem Cell Targeting Peptide) [CSC HP-7, synthetic peptide that targets cancer stem cells]							bound strongly		
ELTPLTL (Cancer Stem Cell Targeting Peptide) [CSC HP-8, synthetic peptide that targets cancer stem cells]	weakly bound	specifically associated	specifically associated	specifically associated	definitely associated	not detectable			bias of CSC HP affinity to CT26 CSCs (CT26 CSCs [7]): more specific
YHQVKPH (Cancer Stem Cell Targeting Peptide) [CSC HP-hP3, synthetic peptide that targets cancer stem cells]								higher signals	
